Legend:
[1] = The drug is tested on Clostridium symbiosum strain: ATCC14940 for biotransformation. The drug concentrations were measured before and after a 12-h incubation by liquid-chromatography-coupled mass spectrometry (LC–MS); conditions: 2 µM
[2] = bacteroides thetaiotaomicron, 12 h, 2 µM
Description: The drug is tested on Bacteroides thetaiotaomicron strain: VPI-5482 for biotransformation. The drug concentrations were measured before and after a 12-h incubation by liquid-chromatography-coupled mass spectrometry (LC–MS)

[3] = The drug is tested on Bacteroides caccae strain: ATCC43185 for biotransformation. The drug concentrations were measured before and after a 12-h incubation by liquid-chromatography-coupled mass spectrometry (LC–MS); conditions: 2 µM
[4] = The drug is tested on Eubacterium hallii strain: DSM3353 for biotransformation. The drug concentrations were measured before and after a 12-h incubation by liquid-chromatography-coupled mass spectrometry (LC–MS); conditions: anaerobutyricum hallii, 2 µM
[5] = The drug is tested on Escherichia coli strain: BW25113 for biotransformation. The drug concentrations were measured before and after a 12-h incubation by liquid-chromatography-coupled mass spectrometry (LC–MS); conditions: 2 µM
[6] = The drug is tested on Bacteroides fragilis strain: ATCC43859 for biotransformation. The drug concentrations were measured before and after a 12-h incubation by liquid-chromatography-coupled mass spectrometry (LC–MS); conditions: 2 µM
[7] = The drug is tested on Bacteroides ovatus strain: ATCC8483 for biotransformation. The drug concentrations were measured before and after a 12-h incubation by liquid-chromatography-coupled mass spectrometry (LC–MS); conditions: 2 µM
[8] = The drug is tested on Bifidobacterium breve strain: DSM20213 for biotransformation. The drug concentrations were measured before and after a 12-h incubation by liquid-chromatography-coupled mass spectrometry (LC–MS); conditions: 2 µM
[9] = The drug is tested on Bacteroides finegoldii strain: DSM17565 for biotransformation. The drug concentrations were measured before and after a 12-h incubation by liquid-chromatography-coupled mass spectrometry (LC–MS); conditions: 2 µM
[10] = bacteroides fragilis, 12 h, 2 µM
Description: The drug is tested on Bacteroides fragilis strain: NCTC 9343 for biotransformation. The drug concentrations were measured before and after a 12-h incubation by liquid-chromatography-coupled mass spectrometry (LC–MS)

[11] = The drug is tested on Clostridium sp. strain: fecal isolate for biotransformation. The drug concentrations were measured before and after a 12-h incubation by liquid-chromatography-coupled mass spectrometry (LC–MS); conditions: 2 µM
[12] = The drug is tested on Bacteroides cellulosilyticus strain: DSM14838 for biotransformation. The drug concentrations were measured before and after a 12-h incubation by liquid-chromatography-coupled mass spectrometry (LC–MS); conditions: 2 µM
[13] = The drug is tested on Clostridium scindens strain: ATCC35704 for biotransformation. The drug concentrations were measured before and after a 12-h incubation by liquid-chromatography-coupled mass spectrometry (LC–MS); conditions: 2 µM
[14] = parabacteroides distasonis, 12 h, 2 µM
Description: The drug is tested on Parabacteroides distasonis strain: ATCC8503 for biotransformation. The drug concentrations were measured before and after a 12-h incubation by liquid-chromatography-coupled mass spectrometry (LC–MS)

[15] = The drug is tested on Blautia luti strain: DSM14534 for biotransformation. The drug concentrations were measured before and after a 12-h incubation by liquid-chromatography-coupled mass spectrometry (LC–MS); assay type: ADME; design: dose 2 uM, timepoint 0 vs 12 hours; conditions: 2 µM
[16] = bacteroides thetaiotaomicron, 12 h, 2 µM; remark: listed apart in the source
Description: The drug is tested on Bacteroides thetaiotaomicron strain: 3731 for biotransformation. The drug concentrations were measured before and after a 12-h incubation by liquid-chromatography-coupled mass spectrometry (LC–MS)

[17] = The drug is tested on Eubacterium rectale strain: ATCC33656 for biotransformation. The drug concentrations were measured before and after a 12-h incubation by liquid-chromatography-coupled mass spectrometry (LC–MS); conditions: agathobacter rectalis, 2 µM
[18] = The drug is tested on Enterobacter cancerogenus strain: ATCC35316 for biotransformation. The drug concentrations were measured before and after a 12-h incubation by liquid-chromatography-coupled mass spectrometry (LC–MS); conditions: 2 µM
[19] = bacteroides fragilis, 12 h, 2 µM; remark: listed apart in the source
Description: The drug is tested on Bacteroides fragilis strain: DS-208 for biotransformation. The drug concentrations were measured before and after a 12-h incubation by liquid-chromatography-coupled mass spectrometry (LC–MS)

CC(C)(C)N.CCC[C@H](N[C@@H](C)C(=O)N1[C@H](C(=O)O)C[C@@H]2CCCC[C@@H]21)C(=O)OCC [PERINDOPRIL ERBUMINE]
Bacterial Biotransformation [1]: Compound NOT metabolized | Bacterial Biotransformation [2]: Compound NOT metabolized | Bacterial Biotransformation [3]: Compound NOT metabolized | Bacterial Biotransformation [4]: Compound NOT metabolized | Bacterial Biotransformation [5]: Compound NOT metabolized | Bacterial Biotransformation [6]: Compound NOT metabolized | Bacterial Biotransformation [7]: Compound NOT metabolized | Bacterial Biotransformation [8]: Compound NOT metabolized | Bacterial Biotransformation [9]: Compound NOT metabolized | Bacterial Biotransformation [10]: Compound NOT metabolized | Bacterial Biotransformation [11]: Compound NOT metabolized | Bacterial Biotransformation [12]: Compound NOT metabolized | Bacterial Biotransformation [13]: Compound NOT metabolized | Bacterial Biotransformation [14]: Compound NOT metabolized | Bacterial Biotransformation [15]: Compound NOT metabolized

CNNCc1ccc(C(=O)NC(C)C)cc1 [PROCARBAZINE]
Bacterial Biotransformation [16]: Compound NOT metabolized | Bacterial Biotransformation [1]: Compound NOT metabolized | Bacterial Biotransformation [2]: Compound NOT metabolized | Bacterial Biotransformation [3]: Compound NOT metabolized | Bacterial Biotransformation [17]: Compound NOT metabolized | Bacterial Biotransformation [4]: Compound NOT metabolized | Bacterial Biotransformation [5]: Compound NOT metabolized | Bacterial Biotransformation [6]: Compound metabolized | Bacterial Biotransformation [7]: Compound NOT metabolized | Bacterial Biotransformation [8]: Compound NOT metabolized | Bacterial Biotransformation [9]: Compound NOT metabolized | Bacterial Biotransformation [10]: Compound NOT metabolized | Bacterial Biotransformation [11]: Compound NOT metabolized | Bacterial Biotransformation [18]: Compound NOT metabolized | Bacterial Biotransformation [13]: Compound NOT metabolized | Bacterial Biotransformation [14]: Compound NOT metabolized | Bacterial Biotransformation [15]: Compound NOT metabolized

CC(CN1c2ccccc2Sc2ccccc21)N(C)C (stereo unspecified) [PROMETHAZINE]
Bacterial Biotransformation [16]: Compound NOT metabolized | Bacterial Biotransformation [1]: Compound NOT metabolized | Bacterial Biotransformation [19]: Compound NOT metabolized | Bacterial Biotransformation [2]: Compound NOT metabolized | Bacterial Biotransformation [3]: Compound NOT metabolized | Bacterial Biotransformation [17]: Compound NOT metabolized | Bacterial Biotransformation [4]: Compound NOT metabolized | Bacterial Biotransformation [6]: Compound NOT metabolized | Bacterial Biotransformation [7]: Compound NOT metabolized | Bacterial Biotransformation [8]: Compound NOT metabolized | Bacterial Biotransformation [9]: Compound NOT metabolized | Bacterial Biotransformation [10]: Compound NOT metabolized | Bacterial Biotransformation [12]: Compound NOT metabolized | Bacterial Biotransformation [13]: Compound NOT metabolized | Bacterial Biotransformation [15]: Compound NOT metabolized

CN(CCOc1ccc(CC2SC(=O)NC2=O)cc1)c1ccccn1.O=C(O)/C=C\C(=O)O (stereo unspecified) [ROSIGLITAZONE MALEATE]
Bacterial Biotransformation [16]: Compound NOT metabolized | Bacterial Biotransformation [1]: Compound NOT metabolized | Bacterial Biotransformation [19]: Compound NOT metabolized | Bacterial Biotransformation [2]: Compound NOT metabolized | Bacterial Biotransformation [3]: Compound NOT metabolized | Bacterial Biotransformation [4]: Compound NOT metabolized | Bacterial Biotransformation [7]: Compound NOT metabolized | Bacterial Biotransformation [8]: Compound NOT metabolized | Bacterial Biotransformation [9]: Compound NOT metabolized | Bacterial Biotransformation [10]: Compound NOT metabolized | Bacterial Biotransformation [11]: Compound NOT metabolized | Bacterial Biotransformation [12]: Compound NOT metabolized | Bacterial Biotransformation [13]: Compound NOT metabolized | Bacterial Biotransformation [14]: Compound NOT metabolized | Bacterial Biotransformation [15]: Compound NOT metabolized

O=C([O-])C[C@H](O)C[C@H](O)/C=C/c1c(C2CC2)nc2ccccc2c1-c1ccc(F)cc1.O=C([O-])C[C@H](O)C[C@H](O)/C=C/c1c(C2CC2)nc2ccccc2c1-c1ccc(F)cc1.[Ca+2] [PITAVASTATIN CALCIUM]
Bacterial Biotransformation [16]: Compound NOT metabolized | Bacterial Biotransformation [1]: Compound NOT metabolized | Bacterial Biotransformation [19]: Compound NOT metabolized | Bacterial Biotransformation [2]: Compound NOT metabolized | Bacterial Biotransformation [3]: Compound NOT metabolized | Bacterial Biotransformation [17]: Compound NOT metabolized | Bacterial Biotransformation [4]: Compound NOT metabolized | Bacterial Biotransformation [5]: Compound NOT metabolized | Bacterial Biotransformation [6]: Compound NOT metabolized | Bacterial Biotransformation [7]: Compound NOT metabolized | Bacterial Biotransformation [8]: Compound NOT metabolized | Bacterial Biotransformation [10]: Compound NOT metabolized | Bacterial Biotransformation [11]: Compound NOT metabolized | Bacterial Biotransformation [18]: Compound NOT metabolized | Bacterial Biotransformation [13]: Compound NOT metabolized | Bacterial Biotransformation [14]: Compound NOT metabolized | Bacterial Biotransformation [15]: Compound NOT metabolized

CCOC(=O)C1=C[C@]2(CC)CCCN3CCc4c(n1c1ccccc41)[C@@H]32 [VINPOCETINE]
Bacterial Biotransformation [16]: Compound NOT metabolized | Bacterial Biotransformation [1]: Compound NOT metabolized | Bacterial Biotransformation [19]: Compound NOT metabolized | Bacterial Biotransformation [2]: Compound NOT metabolized | Bacterial Biotransformation [3]: Compound NOT metabolized | Bacterial Biotransformation [17]: Compound NOT metabolized | Bacterial Biotransformation [4]: Compound NOT metabolized | Bacterial Biotransformation [5]: Compound NOT metabolized | Bacterial Biotransformation [6]: Compound NOT metabolized | Bacterial Biotransformation [7]: Compound NOT metabolized | Bacterial Biotransformation [8]: Compound NOT metabolized | Bacterial Biotransformation [9]: Compound NOT metabolized | Bacterial Biotransformation [10]: Compound NOT metabolized | Bacterial Biotransformation [11]: Compound metabolized | Bacterial Biotransformation [12]: Compound NOT metabolized | Bacterial Biotransformation [13]: Compound NOT metabolized | Bacterial Biotransformation [15]: Compound NOT metabolized

From ChEMBL document CHEMBL5303573, “Mapping human microbiome drug metabolism by gut bacteria and their genes” (Nature, 2019)
